Assays:
[1] = target: T1, WRN [UniPro: Q14191 (WRN_HUMAN), N500-C946] (Homo sapiens (Human), UniProt Q14191); assay: WRN unwinding assay (FORKF DNA, fluorescence); type: biochemical; settings: Table 14
[2] = target: T1, WRN [UniPro: Q14191 (WRN_HUMAN), N500-C946]; assay: WRN ATPase assay (ADP-Glo); type: biochemical; settings: WRN enzymatic activity assay

T1 sequence (Q14191 500-946): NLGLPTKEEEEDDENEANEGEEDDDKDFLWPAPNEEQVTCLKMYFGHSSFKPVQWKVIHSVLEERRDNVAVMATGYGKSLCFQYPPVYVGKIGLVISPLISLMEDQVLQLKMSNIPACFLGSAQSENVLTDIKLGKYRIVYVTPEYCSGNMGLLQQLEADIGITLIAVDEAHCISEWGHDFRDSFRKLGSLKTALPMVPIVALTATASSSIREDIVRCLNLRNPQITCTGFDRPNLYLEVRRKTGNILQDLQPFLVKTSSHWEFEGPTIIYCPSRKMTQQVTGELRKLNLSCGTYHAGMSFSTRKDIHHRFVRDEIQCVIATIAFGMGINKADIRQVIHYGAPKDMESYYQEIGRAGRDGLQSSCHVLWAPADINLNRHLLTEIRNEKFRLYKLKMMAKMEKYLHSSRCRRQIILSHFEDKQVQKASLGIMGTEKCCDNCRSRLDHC

Row | Structure (SMILES) | IC50 [1] | IC50 [2]
1 | CCc1c(N2CCN(C(=O)CNC(=O)c3ccccc3F)CC2)c(=O)n2nc(N3Cc4cnn(C)c4C3)nc2n1CC(=O)Nc1cc(C)cs1 [Example 263, N-(2-(4-(5-Ethyl-2-(1-methyl-4,6-dihydropyrrolo[3,4-c]pyrazol-5 (1H)-yl)-4-(2-((4-methylthiophen-2-yl)amino)-2-oxoethyl)-7-oxo-4,7-dihydro-[1,2,4]triazolo[1,5-a]pyrimidin-6-yl)piperazin-1-yl)-2-oxoethyl)-2-fluorobenzamide] | < 100 nM | < 100 nM
2 | CCc1c(N2CCN(C(=O)C(=O)Nc3nccs3)CC2)c(=O)n2nc(N3CCN4C(=O)OC[C@H]4C3)nc2n1CC(=O)Nc1ccc(C(F)(F)F)cc1F [Example 264, (R)-2-(4-(5-Ethyl-4-(2-((2-fluoro-4-(trifluoromethyl)phenyl)amino)-2-oxoethyl)-7-oxo-2-(3-oxotetrahydro-3H-oxazolo[3,4-a]pyrazin-7 (1H)-yl)-4,7-dihydro-[1,2,4]triazolo[1,5-a]pyrimidin-6-yl)piperazin-1-yl)-2-oxo-N-(thiazol-2-yl)acetamide] | < 100 nM | < 100 nM
3 | CCc1c(N2CCN(C(=O)CNC(=O)Cc3ccccc3)CC2)c(=O)n2nc(C3=CCOCC3)nc2n1CC(=O)Nc1ccc(C(F)(F)F)cc1Cl [Example 267, N-(2-Chloro-4-(trifluoromethyl)phenyl)-2-(2-(3,6-dihydro-2H-pyran-4-yl)-5-ethyl-7-oxo-6-(4-((2-phenylacetyl)glycyl)piperazin-1-yl)-[1,2,4]triazolo[1,5-a]pyrimidin-4(7H)-yl)acetamide] | < 100 nM | < 100 nM
4 | CCc1c(N2CCN(C(=O)CNC(=O)c3cncs3)CC2)c(=O)n2nc(C3=CCOCC3)nc2n1CC(=O)Nc1ccc(C(F)(F)F)cc1Cl [Example 268, N-(2-(4-(4-(2-((2-Chloro-4-(trifluoromethyl)phenyl)amino)-2-oxoethyl)-2-(3,6-dihydro-2H-pyran-4-yl)-5-ethyl-7-oxo-4,7-dihydro-[1,2,4]triazolo[1,5-a]pyrimidin-6-yl)piperazin-1-yl)-2-oxoethyl)thiazole-5-carboxamide] | < 100 nM | < 100 nM
5 | CCc1c(N2CCN(C(=O)CNC(=O)CC3CCC3)CC2)c(=O)n2nc(C3=CCOCC3)nc2n1CC(=O)Nc1ccc(C(F)(F)F)cc1Cl [Example 272, N-(2-Chloro-4-(trifluoromethyl)phenyl)-2-(6-(4-((2-cyclobutylacetyl)glycyl)piperazin-1-yl)-2-(3,6-dihydro-2H-pyran-4-yl)-5-ethyl-7-oxo-[1,2,4]triazolo[1,5-a]pyrimidin-4(7H)-yl)acetamide] | < 100 nM | < 100 nM
6 | CCc1c(N2CCN(C(=O)CNC(=O)CC3COC3)CC2)c(=O)n2nc(C3=CCOCC3)nc2n1CC(=O)Nc1ccc(C(F)(F)F)cc1Cl [Example 273, N-(2-Chloro-4-(trifluoromethyl)phenyl)-2-(2-(3,6-dihydro-2H-pyran-4-yl)-5-ethyl-6-(4-((2-(oxetan-3-yl)acetyl)glycyl)piperazin-1-yl)-7-oxo-[1,2,4]triazolo[1,5-a]pyrimidin-4(7H)-yl)acetamide] | < 100 nM | 100 to 1000 nM

Second part, the compound after the results:

Row | IC50 [1] | IC50 [2] | Structure (SMILES)
7 | < 100 nM | < 100 nM | CCc1c(N2CCN(C(=O)C(=O)Nc3nccs3)CC2)c(=O)n2nc(N3CCOCC3)nc2n1CC(=O)Nc1ccc(C(F)(F)F)cc1F [Example 260, 2-(4-(5-Ethyl-4-(2-((2-fluoro-4-(trifluoromethyl)phenyl)amino)-2-oxoethyl)-2-morpholino-7-oxo-4,7-dihydro-[1,2,4]triazolo[1,5-a]pyrimidin-6-yl)piperazin-1-yl)-2-oxo-N-(thiazol-2-yl)acetamide]
8 | < 100 nM | < 100 nM | CCc1c(N2CCN(C(=O)C(=O)Nc3nccs3)CC2)c(=O)n2nc(N3CCn4cncc4C3)nc2n1CC(=O)Nc1ccc(C(F)(F)F)cc1F [Example 261, 2-(4-(2-(5,6-Dihydroimidazo[1,5-a]pyrazin-7 (8H)-yl)-5-ethyl-4-(2-((2-fluoro-4-(trifluoromethyl)phenyl)amino)-2-oxoethyl)-7-oxo-4,7-dihydro-[1,2,4]triazolo[1,5-a]pyrimidin-6-yl)piperazin-1-yl)-2-oxo-N-(thiazol-2-yl)acetamide]
9 | < 100 nM | 100 to 1000 nM | CCc1c(N2CCN(C(=O)C(=O)Nc3nccs3)CC2)c(=O)n2nc(N3CCCOCC3)nc2n1CC(=O)Nc1ccc(C(F)(F)F)cc1F [Example 262, 2-(4-(5-Ethyl-4-(2-((2-fluoro-4-(trifluoromethyl)phenyl)amino)-2-oxoethyl)-2-(1,4-oxazepan-4-yl)-7-oxo-4,7-dihydro-[1,2,4]triazolo[1,5-a]pyrimidin-6-yl)piperazin-1-yl)-2-oxo-N-(thiazol-2-yl)acetamide]
10 | < 100 nM | < 100 nM | CCc1c(N2CCN(C(=O)CNC(=O)NC(=O)c3cc(F)ccc3F)CC2)c(=O)n2nc(C3=CCOCC3)nc2n1CC(=O)Nc1ccc(C(F)(F)F)cc1Cl [Example 265, N-((2-(4-(4-(2-((2-Chloro-4-(trifluoromethyl)phenyl)amino)-2-oxoethyl)-2-(3,6-dihydro-2H-pyran-4-yl)-5-ethyl-7-oxo-4,7-dihydro-[1,2,4]triazolo[1,5-a]pyrimidin-6-yl)piperazin-1-yl)-2-oxoethyl)carbamoyl)-2,5-difluorobenzamide]
11 | < 100 nM | < 100 nM | CCc1c(N2CCN(C(=O)CNC(=O)c3ccccc3O)CC2)c(=O)n2nc(C3=CCOCC3)nc2n1CC(=O)Nc1ccc(C(F)(F)F)cc1Cl [Example 269, N-(2-(4-(4-(2-((2-Chloro-4-(trifluoromethyl)phenyl)amino)-2-oxoethyl)-2-(3,6-dihydro-2H-pyran-4-yl)-5-ethyl-7-oxo-4,7-dihydro-[1,2,4]triazolo[1,5-a]pyrimidin-6-yl)piperazin-1-yl)-2-oxoethyl)-2-hydroxybenzamide]
12 | < 100 nM | < 100 nM | CCc1c(N2CCN(C(=O)CNC(=O)c3cccc(O)c3)CC2)c(=O)n2nc(C3=CCOCC3)nc2n1CC(=O)Nc1ccc(C(F)(F)F)cc1Cl [Example 270, N-(2-(4-(4-(2-((2-Chloro-4-(trifluoromethyl)phenyl)amino)-2-oxoethyl)-2-(3,6-dihydro-2H-pyran-4-yl)-5-ethyl-7-oxo-4,7-dihydro-[1,2,4]triazolo[1,5-a]pyrimidin-6-yl)piperazin-1-yl)-2-oxoethyl)-3-hydroxybenzamide]
13 | < 100 nM | 100 to 1000 nM | CCc1c(N2CCN(C(=O)CNC(=O)c3ncccc3O)CC2)c(=O)n2nc(C3=CCOCC3)nc2n1CC(=O)Nc1ccc(C(F)(F)F)cc1Cl [Example 271, N-(2-(4-(4-(2-((2-Chloro-4-(trifluoromethyl)phenyl)amino)-2-oxoethyl)-2-(3,6-dihydro-2H-pyran-4-yl)-5-ethyl-7-oxo-4,7-dihydro-[1,2,4]triazolo[1,5-a]pyrimidin-6-yl)piperazin-1-yl)-2-oxoethyl)-3-hydroxypicolinamide]
14 | < 100 nM | < 100 nM | CCc1c(N2CCN(C(=O)CNC(=O)Cc3ccccc3F)CC2)c(=O)n2nc(C3=CCOCC3)nc2n1CC(=O)Nc1ccc(C(F)(F)F)cc1Cl [Example 274, N-(2-Chloro-4-(trifluoromethyl)phenyl)-2-(2-(3,6-dihydro-2H-pyran-4-yl)-5-ethyl-6-(4-((2-(2-fluorophenyl)acetyl)glycyl)piperazin-1-yl)-7-oxo-[1,2,4]triazolo[1,5-a]pyrimidin-4(7H)-yl)acetamide]
